According to PubChem BioAssay AID1963874 (Molecular Pharmacology Branch, DTP, NCI, 2024):

Tested on: 253994-281-T-J1-PDC KRAS-mutant spheroids with HUVEC/MSC, viability
Assay: Anticancer human tumor 253994-281-T-J1-PDC patient-derived colorectal carcinoma cell line growth inhibition [KRAS2]
Conditions: for IC50: curve of first compound; for viability, T/C: stronger effect = lower value
Outline: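 KRAS-mutant tumor cells were grown as spheroids with HUVEC endothelial cells and human MSCs as stroma. Targeted agents were tested alone and with KRAS pathway inhibitors. Doses started at or near clinical Cmax, or 10 microM, descending half-log.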

[1] = second compound 0.1 µM, first compound 0.0316 µM
[2] = second compound 0.1 µM, first compound 0.1 µM
[3] = second compound 0.1 µM, first compound 0.316 µM
[4] = second compound 0.1 µM, first compound 1 µM
[5] = second compound 0.1 µM, first compound 3.16 µM
[6] = second compound 0.1 µM, first compound 10 µM
[7] = second compound 0.316 µM, first compound 0.0316 µM
[8] = second compound 0.316 µM, first compound 0.1 µM
[9] = second compound 0.316 µM, first compound 0.316 µM
[10] = second compound 0.316 µM, first compound 1 µM
[11] = second compound 0.316 µM, first compound 3.16 µM
[12] = second compound 0.316 µM, first compound 10 µM
[13] = second compound 1 µM, first compound 0.0316 µM
[14] = second compound 1 µM, first compound 0.1 µM
[15] = second compound 1 µM, first compound 0.316 µM
[16] = second compound 1 µM, first compound 1 µM
[17] = second compound 1 µM, first compound 3.16 µM
[18] = second compound 1 µM, first compound 10 µM
[19] = second compound 3.16 µM, first compound 0.0316 µM
[20] = second compound 3.16 µM, first compound 0.1 µM
[21] = second compound 3.16 µM, first compound 0.316 µM
[22] = second compound 3.16 µM, first compound 1 µM
[23] = second compound 3.16 µM, first compound 3.16 µM
[24] = second compound 3.16 µM, first compound 10 µM
[25] = second compound 10 µM, first compound 0.0316 µM
[26] = second compound 10 µM, first compound 0.1 µM
[27] = second compound 10 µM, first compound 0.316 µM
[28] = second compound 10 µM, first compound 1 µM
[29] = second compound 10 µM, first compound 3.16 µM
[30] = second compound 10 µM, first compound 10 µM
[31] = second compound 0.1 µM, first compound 0.00316 µM
[32] = second compound 0.1 µM, first compound 0.01 µM
[33] = second compound 0.316 µM, first compound 0.00316 µM
[34] = second compound 0.316 µM, first compound 0.01 µM
[35] = second compound 1 µM, first compound 0.00316 µM
[36] = second compound 1 µM, first compound 0.01 µM
[37] = second compound 3.16 µM, first compound 0.00316 µM
[38] = second compound 3.16 µM, first compound 0.01 µM
[39] = second compound 10 µM, first compound 0.00316 µM
[40] = second compound 10 µM, first compound 0.01 µM
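Also: spheroids exposed to agents for seven days before readout.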
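For viability, T/C in this document: percent of DMSO vehicle control viability.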

Structure (SMILES) | IC50 (second compound 0.1 µM) [nM] | IC50 (second compound 0.316 µM) [nM] | IC50 (second compound 1 µM) [nM] | IC50 (second compound 3.16 µM) [nM] | IC50 (second compound 10 µM) [nM] | viability, T/C [1] [%] | viability, T/C [2] [%] | viability, T/C [3] [%] | viability, T/C [4] [%] | viability, T/C [7] [%] | viability, T/C [8] [%] | viability, T/C [9] [%] | viability, T/C [10] [%] | viability, T/C [13] [%] | viability, T/C [14] [%] | viability, T/C [15] [%] | viability, T/C [19] [%] | viability, T/C [20] [%] | viability, T/C [25] [%] | viability, T/C [26] [%] | other results
CC(C)NCC(C(=O)N1CCN(c2ncnc3c2C(C)CC3O)CC1)c1ccc(Cl)cc1 (stereo not given) + CNCc1ccccc1-c1csc(C(C)Nc2nc(C)nc3cc(OC)c(OC)cc23)c1 | > 10000 | > 10000 | > 10000 | < 31.6 | < 31.6 | 110 | 109 | 99.6 | 111 | 110 | 96 | 98.2 | 113 | 121 | 108 | 88.1 | 38.1 | 29.8 | 0.17 | 0.14 | viability, T/C [5]: 94.7%; viability, T/C [6]: 105%; viability, T/C [11]: 107%; viability, T/C [12]: 101%; viability, T/C [16]: 103%; viability, T/C [17]: 95.2%; viability, T/C [18]: 99.4%; viability, T/C [21]: 24%; viability, T/C [22]: 34.8%; viability, T/C [23]: 24.1%; viability, T/C [24]: 40.1%; viability, T/C [27]: 0.14%; viability, T/C [28]: 0.16%; viability, T/C [29]: 0.13%; viability, T/C [30]: 0.27%
CCN1CCN(Cc2ccc(Nc3ncc(F)c(-c4cc(F)c5nc(C)n(C(C)C)c5c4)n3)nc2)CC1 + CNCc1ccccc1-c1csc(C(C)Nc2nc(C)nc3cc(OC)c(OC)cc23)c1 | 683 | 530 | 420 | < 3.16 | < 3.16 | 84.1 | 78.7 | 71.4 | 39.8 | 73.5 | 85.5 | 64.7 | 31.4 | 78.2 | 76.3 | 62.5 | 36.4 | 20.3 | 0.19 | 0.14 | viability, T/C [31]: 97.4%; viability, T/C [32]: 82.5%; viability, T/C [33]: 101%; viability, T/C [34]: 78%; viability, T/C [35]: 82.7%; viability, T/C [36]: 82.2%; viability, T/C [16]: 13.5%; viability, T/C [37]: 44.8%; viability, T/C [38]: 37%; viability, T/C [21]: 11.9%; viability, T/C [22]: 0.18%; viability, T/C [39]: 0.2%; viability, T/C [40]: 0.39%; viability, T/C [27]: 0.34%; viability, T/C [28]: 0.22%
CCNC(=O)CC1N=C(c2ccc(Cl)cc2)c2cc(OC)ccc2-n2c(C)nnc21 (stereo not given) + CNCc1ccccc1-c1csc(C(C)Nc2nc(C)nc3cc(OC)c(OC)cc23)c1 | > 10000 | > 10000 | > 10000 | 64 | < 31.6 | 106 | 103 | 86.8 | 85.8 | 110 | 100 | 101 | 90 | 87.3 | 106 | 103 | 48.9 | 53.7 | 0.26 | 0.24 | viability, T/C [5]: 91.7%; viability, T/C [6]: 88.9%; viability, T/C [11]: 87.3%; viability, T/C [12]: 78.1%; viability, T/C [16]: 88.4%; viability, T/C [17]: 79%; viability, T/C [18]: 64.3%; viability, T/C [21]: 42.8%; viability, T/C [22]: 38.2%; viability, T/C [23]: 34.8%; viability, T/C [24]: 27.7%; viability, T/C [27]: 0.23%; viability, T/C [28]: 0.18%; viability, T/C [29]: 0.18%; viability, T/C [30]: 0.29%
Cn1ncnc1[C@H]1c2n[nH]c(=O)c3cc(F)cc(c23)N[C@@H]1c1ccc(F)cc1 + CNCc1ccccc1-c1csc(C(C)Nc2nc(C)nc3cc(OC)c(OC)cc23)c1 | > 100 | > 100 | > 100 | < 0.316 | < 0.316 | 110 | 99.8 |  |  | 108 | 79.5 |  |  | 92.3 | 78.5 |  | 28.2 | 34.9 | 0.15 | 0.24 | viability, T/C (second compound 0.1 µM, first compound 0.000316 µM): 103%; viability, T/C (second compound 0.1 µM, first compound 0.001 µM): 108%; viability, T/C [31]: 114%; viability, T/C [32]: 84.5%; viability, T/C (second compound 0.316 µM, first compound 0.000316 µM): 93.2%; viability, T/C (second compound 0.316 µM, first compound 0.001 µM): 96.4%; viability, T/C [33]: 105%; viability, T/C [34]: 94.5%; viability, T/C (second compound 1 µM, first compound 0.000316 µM): 94.4%; viability, T/C (second compound 1 µM, first compound 0.001 µM): 91.9%; viability, T/C [35]: 87.4%; viability, T/C [36]: 94.3%; viability, T/C (second compound 3.16 µM, first compound 0.000316 µM): 28.7%; viability, T/C (second compound 3.16 µM, first compound 0.001 µM): 41.5%; viability, T/C [37]: 30.3%; viability, T/C [38]: 38.9%; viability, T/C (second compound 10 µM, first compound 0.000316 µM): 0.15%; viability, T/C (second compound 10 µM, first compound 0.001 µM): 0.19%; viability, T/C [39]: 0.15%; viability, T/C [40]: 0.14%
